In patent publication US12662491B2 (Redona Therapeutics, Inc., priority 2020, dated 2026) one finds IC50 data, which are given here for 20 compounds.

Structures can show the parent of a compound that is named as a salt.

For the experiment, the target named is T1, Zcchc11 enzyme (Homo sapiens, UniProt Q5TAX3).
T1 construct: made in house; host or cells: HEK293 cells (Zcchc11); E. coli Rosetta II (LIN28A)
T1 sequence (Q5TAX3 212-1420): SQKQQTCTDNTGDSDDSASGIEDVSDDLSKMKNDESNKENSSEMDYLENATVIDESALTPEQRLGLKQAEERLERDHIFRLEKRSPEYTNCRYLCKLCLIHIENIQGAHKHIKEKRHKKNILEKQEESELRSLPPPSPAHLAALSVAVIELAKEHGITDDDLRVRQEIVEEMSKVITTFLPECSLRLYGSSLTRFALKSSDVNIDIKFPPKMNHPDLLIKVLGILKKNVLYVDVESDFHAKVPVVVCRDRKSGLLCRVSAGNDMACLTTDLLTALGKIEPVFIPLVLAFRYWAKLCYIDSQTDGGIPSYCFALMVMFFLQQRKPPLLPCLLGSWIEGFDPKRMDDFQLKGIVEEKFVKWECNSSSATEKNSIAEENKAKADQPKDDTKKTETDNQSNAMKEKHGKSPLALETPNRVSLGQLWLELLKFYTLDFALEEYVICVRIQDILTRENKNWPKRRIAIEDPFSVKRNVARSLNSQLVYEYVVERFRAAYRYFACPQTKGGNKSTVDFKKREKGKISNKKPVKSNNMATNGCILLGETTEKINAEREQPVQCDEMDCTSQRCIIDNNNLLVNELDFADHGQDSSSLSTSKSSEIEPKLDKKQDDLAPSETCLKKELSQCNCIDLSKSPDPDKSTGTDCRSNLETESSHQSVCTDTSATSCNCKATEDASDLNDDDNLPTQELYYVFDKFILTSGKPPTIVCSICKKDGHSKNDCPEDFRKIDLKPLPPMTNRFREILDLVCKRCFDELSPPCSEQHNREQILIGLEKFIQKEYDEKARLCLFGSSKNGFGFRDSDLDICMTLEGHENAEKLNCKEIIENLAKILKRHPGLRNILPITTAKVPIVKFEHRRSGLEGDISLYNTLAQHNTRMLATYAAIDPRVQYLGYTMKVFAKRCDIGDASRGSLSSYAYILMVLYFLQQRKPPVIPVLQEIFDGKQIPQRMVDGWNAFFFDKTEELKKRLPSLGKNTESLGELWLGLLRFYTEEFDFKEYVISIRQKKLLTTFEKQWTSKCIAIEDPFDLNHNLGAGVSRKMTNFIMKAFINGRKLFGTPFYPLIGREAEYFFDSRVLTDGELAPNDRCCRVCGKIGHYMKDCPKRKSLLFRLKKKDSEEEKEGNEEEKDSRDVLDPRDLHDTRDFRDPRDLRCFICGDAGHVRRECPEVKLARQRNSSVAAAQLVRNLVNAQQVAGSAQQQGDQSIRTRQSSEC
The experiment is described as follows: TUTase assay (Zcchc11 assay, Lin28a-dependent polyuridylation of pre-let-7). The class given is biochemical. To be noted: Lin28a-dependent Zcchc11 (Z11) TUTase assay; read-out: Potency Lin28a-dep Z11 IC50. The method in brief: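 Potency is measured as inhibition of LIN28A-driven U-tail addition to 2 nM pre-let-7 by 0.2 nM HEK293-derived Zcchc11 fragment with 5 uM UTP at room temperature. Tail growth appears as fluorescein quenching by an annealing rhodamine-A20 probe.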
Regarding `Cc1cc2c(=O)c(C(=O)O)cn(-c3ccc(N4CC(N(C)C)C4)nc3)c2cc1N1C[C@@H](F)C[C@@H]1COc1ncccc1Cl` [Example 467, 7-((2R,4S)-2-(((3-chloropyridin-2-yl)oxy)methyl)-4-fluoropyrrolidin-1-yl)-1-(6-(3-(dimethylamino)azetidin-1-yl)pyridin-3-yl)-6-methyl-4-oxo-1,4-dihydroquinoline-3-carboxylic acid], the IC50 (usually the concentration at which inhibition is half-maximal) is ≤ 1000 nM.

Consider `O=C(O)c1cn(-c2cnccn2)c2cc(N3C[C@@H](F)C[C@H]3COc3ncccc3Cl)c(Cl)cc2c1=O` [Example 468, 6-chloro-7-[(2S,4S)-2-{[(3-chloropyridin-2-yl)oxy]methyl}-4-fluoropyrrolidin-1-yl]-4-oxo-1-(pyrazin-2-yl)-1,4-dihydroquinoline-3-carboxylic acid], for which the IC50 lay within 10000 to 50000 nM.

As for `O=C(O)c1cn(C2CCc3nccn3C2)c2cc(N3CCC[C@@H]3COc3ncccc3Cl)c(Cl)cc2c1=O` (stereo partly drawn) [Example 469, 6-chloro-7-((R)-2-(((3-chloropyridin-2-yl)oxy)methyl)pyrrolidin-1-yl)-4-oxo-1-(5,6,7,8-tetrahydroimidazo [1,2-a]pyridin-6-yl)-1,4-dihydroquinoline-3-carboxylic acid], the concentration for half-maximal inhibition (IC50) is ≤ 1000 nM.

Consider `COCCN1CC(n2cc(C(=O)O)c(=O)c3cc(Cl)c(N4CCC[C@@H]4COc4ncccc4Cl)cc32)C1` [Example 470, (R)-6-chloro-7-(2-(((3-chloropyridin-2-yl)oxy)methyl)pyrrolidin-1-yl)-1-(1-(2-methoxy-ethyl)azetidin-3-yl)-1-(1-(2-methoxyethyl)azetidin-3-yl)-4-oxo-1,4-dihydroquinoline-3-carboxylic acid], for which the IC50 was in the range of 1000 to 10000 nM.

Take `NC1CC(n2cc(C(=O)O)c(=O)c3cc(Cl)c(N4CCC[C@@H]4COc4ncccc4Cl)cc32)C1` (stereo partly drawn) [Example 471, (R)-1-(3-aminocyclobutyl)-6-chloro-7-(2-(((3-chloropyridin-2-yl)oxy)methyl)pyrrolidin-1-yl)-4-oxo-1,4-dihydroquinoline-3-carboxylic acid]: the concentration for half-maximal inhibition (IC50) lay within 1000 to 10000 nM.

As for `O=C(O)c1cn(-c2ccc(NS(=O)(=O)C3CC3)cc2)c2cc(N3CCC[C@@H]3COc3ncccc3Cl)c(Cl)cc2c1=O` [Example 472, 6-chloro-7-[(2R)-2-{[(3-chloropyridin-2-yl)oxy)methyl}pyrrolidin-1-yl]-1-(4-cyclopropane-sulfonamido-phenyl)-4-oxo-1,4-dihydroquinoline-3-carboxylic acid], the 50% inhibitory concentration (IC50) was ≤ 1000 nM.

As for `Nc1cc(-n2cc(C(=O)O)c(=O)c3cc(Cl)c(N4CCC[C@@H]4COc4ncccc4Cl)cc32)ccn1` [Example 473, (R)-1-(2-aminopyridin-4-yl)-6-chloro-7-(2-(((3-chloropyridin-2-yl)oxy)methyl)pyrrolidin-1-yl)-4-oxo-1,4-dihydroquinoline-3-carboxylic acid], the half-maximal inhibitory concentration (IC50) is ≤ 1000 nM.

`O=C(O)c1cn(-c2cc3cn[nH]c3cn2)c2cc(N3CCC[C@@H]3COc3ncccc3Cl)c(Cl)cc2c1=O` [Example 474, (R)-6-chloro-7-(2-(((3-chloropyridin-2-yl)oxy)methyl)pyrrolidin-1-yl)-4-oxo-1-(1H-pyrazolo[3,4-c]pyridin-5-yl)-1,4-dihydroquinoline-3-carboxylic acid]: the IC50 is ≤ 1000 nM.

Turning to `O=C(O)c1cn(-c2cnc3[nH]ncc3c2)c2cc(N3CCC[C@@H]3COc3ncccc3Cl)c(Cl)cc2c1=O` [Example 475, (R)-6-chloro-7-(2-(((3-chloropyridin-2-yl)oxy)methyl)pyrrolidin-1-yl)-4-oxo-1-(1H-pyrazolo[3,4-b]pyridin-5-yl)-1,4-dihydroquinoline-3-carboxylic acid], the IC50 was ≤ 1000 nM.

On to `CN(C)C1CN(c2ccc(-n3cc(C(=O)O)c(=O)c4cc(Cl)c(N5CCC[C@@H]5COc5ncccc5Cl)cc43)cn2)C1` [Example 476, (R)-6-chloro-7-(2-(((3-chloropyridin-2-yl)oxy)methyl)pyrrolidin-1-yl)-1-(6-(3-(dimethyl-amino)azetidin-1-yl)pyridin-3-yl)-4-oxo-1,4-dihydroquinoline-3-carboxylic acid], for which the concentration for half-maximal inhibition (IC50) is ≤ 1000 nM.

As to `CNC1CN(c2ccc(-n3cc(C(=O)O)c(=O)c4cc(Cl)c(N5CCC[C@@H]5COc5ncccc5Cl)cc43)cn2)C1` [Example 477, (R)-6-chloro-7-(2-(((3-chloropyridin-2-yl)oxy)methyl)pyrrolidin-1-yl)-1-(6-(3-(methyl-amino)azetidin-1-yl)pyridin-3-yl)-4-oxo-1,4-dihydroquinoline-3-carboxylic acid], the IC50 is ≤ 1000 nM.

As for `O=C(O)c1cn(-c2ccc(N3CCNCC3)nc2)c2cc(N3CCC[C@@H]3COc3ncccc3Cl)c(Cl)cc2c1=O` [Example 478, (R)-6-chloro-7-(2-(((3-chloropyridin-2-yl)oxy)methyl)pyrrolidin-1-yl)-4-oxo-1-(6-(piperazin-1-yl)pyridin-3-yl)-1,4-dihydroquinoline-3-carboxylic acid], the half-maximal inhibitory concentration (IC50) is ≤ 1000 nM.

With `O=C(O)c1cn(-c2cnn(CCN3CCC3)c2)c2cc(N3CCC[C@@H]3COc3ncccc3Cl)c(Cl)cc2c1=O` [Example 479, (R)-1-(1-(2-(azetidin-1-yl)ethyl)-1H-pyrazol-4-yl)-6-chloro-7-(2-(((3-chloropyridin-2-yl)oxy)methyl)pyrrolidin-1-yl)-4-oxo-1,4-dihydroquinoline-3-carboxylic acid], the IC50 is ≤ 1000 nM.

As for `CNCCOc1ccc(-n2cc(C(=O)O)c(=O)c3cc(Cl)c(N4CCC[C@@H]4COc4ncccc4Cl)cc32)cn1` [Example 480, (R)-6-chloro-7-(2-(((3-chloropyridin-2-yl)oxy)methyl)pyrrolidin-1-yl)-1-(6-(2-(methyl-amino)ethoxy)pyridin-3-yl)-4-oxo-1,4-dihydroquinoline-3-carboxylic acid hydrochloride], the IC50 was ≤ 1000 nM.

In the case of `COCCNc1cnc(-n2cc(C(=O)O)c(=O)c3cc(Cl)c(N4CCC[C@@H]4COc4ncccc4Cl)cc32)cn1` [Example 481, 6-chloro-7-[(2R)-2-{[(3-chloropyridin-2-yl)oxy]methyl}pyrrolidin-1-yl]-1-{5-[(2-methoxyethyl)amino]pyrazin-2-yl}-4-oxo-1,4-dihydroquinoline-3-carboxylic acid], the IC50 is ≤ 1000 nM.

In the case of `COCCN1CC2(CC(n3cc(C(=O)O)c(=O)c4cc(Cl)c(N5CCC[C@@H]5COc5ncccc5Cl)cc43)C2)C1` [Example 482, (R)-6-chloro-7-(2-(((3-chloropyridin-2-yl)oxy)methyl)pyrrolidin-1-yl)-1-(2-(2-methoxy-ethyl)-2-azaspiro[3.3]heptan-6-yl)-4-oxo-1,4-dihydroquinoline-3-carboxylic acid], the IC50 was 1000 to 10000 nM.

Regarding `Nc1cnc(-n2cc(C(=O)O)c(=O)c3cc(Cl)c(N4CCC[C@@H]4COc4ncccc4Cl)cc32)cn1` [Example 483, 1-(5-aminopyrazin-2-yl)-6-chloro-7-[(2R)-2-{[(3-chloropyridin-2-yl)oxy]methyl}pyrrolidin-1-yl]-4-oxo-1,4-dihydroquinoline-3-carboxylic acid], the IC50 was ≤ 1000 nM.

For `CC(C)(C)OC(=O)NC1CC(n2cc(C(=O)O)c(=O)c3cc(Cl)c(N4CCC[C@@H]4COc4ncccc4Cl)cc32)C1` (stereo partly drawn) [Example 484, (R)-1-(3-((tert-butoxycarbonyl)amino)cyclobutyl)-6-chloro-7-(2-(((3-chloropyridin-2-yl)oxy)methyl)pyrrolidin-1-yl)-4-oxo-1,4-dihydroquinoline-3-carboxylic acid], the IC50 was ≤ 1000 nM.

In the case of `O=C(O)c1cn(-c2ncco2)c2cc(N3CCC[C@@H]3COc3ncccc3Cl)c(Cl)cc2c1=O` [Example 485, (R)-6-chloro-7-(2-(((3-chloropyridin-2-yl)oxy)methyl)pyrrolidin-1-yl)-1-(oxazol-2-yl)-4-oxo-1,4-dihydroquinoline-3-carboxylic acid], the half-inhibitory concentration (IC50) was ≤ 1000 nM.

As to `O=C(O)c1cn(-c2ccc3[nH]ncc3n2)c2cc(N3CCC[C@@H]3COc3ncccc3Cl)c(Cl)cc2c1=O` [Example 486, 6-chloro-7-[(2R)-2-{[(3-chloropyridin-2-yl)oxy]methyl}pyrrolidin-1-yl]-4-oxo-1-{1H-pyrazolo[4,3-b]pyridin-5-yl}-1,4-dihydroquinoline-3-carboxylic acid], the half-inhibitory concentration (IC50) was ≤ 1000 nM.
